# Test results taken from patent US5362747A, “2-nitroaryl and 2-cyanoaryl compounds as regulators of nitric oxide synthase” (Abbott Laboratories, priority 1993, dated 1994).
# Key:
# EDRF (NO) production = conditions: cited from earlier work
# Type II (macrophage) NOS = molecular target: T1, Type II (macrophage) NOS (Mus musculus, UniProt P29477); assay: [3H]-arginine to [3H]-citrulline conversion, Type II (macrophage) NOS; assay type: biochemical, murine; conditions: cytosolic NOS from LPS-induced RAW 264.7 cells, 25° C.; for inhibition at 100 µM: read-out: Type II % inhib. @ 100 μM
# T1 construct: cytosolic preparations of NO synthase (type II isoform) were prepared from RAW 264.7 cells; endogenous in cells; host or cells: RAW 264.7 cells, induced 16 hours with lipopolysaccharide; cytosolic preparation
# T1 sequence (P29477 whole entry, canonical isoform): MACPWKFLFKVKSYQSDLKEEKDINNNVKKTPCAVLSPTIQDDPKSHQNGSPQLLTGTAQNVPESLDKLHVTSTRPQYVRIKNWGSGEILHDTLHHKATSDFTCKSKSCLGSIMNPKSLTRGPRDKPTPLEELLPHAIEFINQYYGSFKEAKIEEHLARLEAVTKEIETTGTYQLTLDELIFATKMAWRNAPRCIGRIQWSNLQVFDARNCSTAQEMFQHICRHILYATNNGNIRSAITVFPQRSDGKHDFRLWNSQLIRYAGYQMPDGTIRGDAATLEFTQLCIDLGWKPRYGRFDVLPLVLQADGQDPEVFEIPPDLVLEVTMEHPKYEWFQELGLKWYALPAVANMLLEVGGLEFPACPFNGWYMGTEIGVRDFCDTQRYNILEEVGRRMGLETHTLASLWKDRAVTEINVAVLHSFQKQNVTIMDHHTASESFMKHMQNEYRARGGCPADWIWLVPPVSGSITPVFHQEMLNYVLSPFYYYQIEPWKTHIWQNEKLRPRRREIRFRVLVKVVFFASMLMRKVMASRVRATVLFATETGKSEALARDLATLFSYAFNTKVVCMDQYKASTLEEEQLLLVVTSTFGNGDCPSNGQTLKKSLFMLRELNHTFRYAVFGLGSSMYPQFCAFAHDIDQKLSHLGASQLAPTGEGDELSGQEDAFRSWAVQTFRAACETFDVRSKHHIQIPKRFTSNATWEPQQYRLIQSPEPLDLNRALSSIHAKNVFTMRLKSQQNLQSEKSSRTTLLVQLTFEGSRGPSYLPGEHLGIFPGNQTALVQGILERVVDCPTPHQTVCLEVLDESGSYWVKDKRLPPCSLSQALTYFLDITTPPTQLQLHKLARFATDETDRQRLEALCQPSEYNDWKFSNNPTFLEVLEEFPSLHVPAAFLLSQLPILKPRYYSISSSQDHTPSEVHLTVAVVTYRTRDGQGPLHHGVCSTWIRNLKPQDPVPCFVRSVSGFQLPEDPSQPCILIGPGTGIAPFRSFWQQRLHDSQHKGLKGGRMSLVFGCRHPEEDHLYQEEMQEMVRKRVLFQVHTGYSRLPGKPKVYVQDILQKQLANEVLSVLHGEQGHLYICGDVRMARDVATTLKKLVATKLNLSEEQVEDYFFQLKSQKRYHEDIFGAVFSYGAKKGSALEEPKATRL
# Text: The enzyme NO synthase produces EDRF/NO and citrulline from L-arginine (Bredt and Snyder, Proc. Nat'l Acad Sci USA, 1989, 87: 682-5). The enzymatic generation of EDRF/NO is monitored by measuring the conversion of [^3 H]-L-arginine to [^3 H]-L-citrulline. An inhibitor of this specific enzymatic reaction lowers the conversion rate and, thus, the amount of [^3 H]-L-citrulline produced. Likewise, a compound acting as a substrate would compete with L-arginine and thereby lower the conversion rate.
# The conversion of L-arginine to L-citrulline was assayed as reported previously (Bredt and Snyder, Proc. Nat'l Acad Sci USA, 1989, 87: 682-5) with minor modifications. Briefly, samples of partially purified NO synthase, […] of partially purified NO synthase or, alternately, […] of a cytosolic preparation of NO synthase. The type 1 isoform of NO synthase was isolated from rat brain cerebellum cells partially purified on a phosphocellulose column. The cytosolic preparations of NO synthase (type II isoform) were prepared from RAW 264.7 cells (a murine monocyte-macrophage cell line), induced for 16 hours with […] medium of lipopolysaccharide (LPS). Another enzyme isoform (type III)is known to be present in bovine endothelial cells (BAE cells), and can be utilized if an additional assay is desired. The samples of enzyme were incubated for 20 minutes (3 minutes in the cases of purified enzyme preparations) at 25° C. in the presence of […] L-[2,3-^3 H]arginine (55 Ci /mmol) (containing 34 nM (0.2 mCi)), 1 mM NADPH, 100 nM calmodulin, 2 mM CaCl2, and with varying concentrations of inhibitors, in a final volume of […]. The reaction was stopped by adding 1 mL of stop buffer (2 mM EGTA, 2 mM EDTA, 20 mM HEPES, pH 5.5). The total volume was then applied to a 1 mL Dowex AG 50WX-8 column (Na^+ form, BioRad) that had been pre-equilibrated with the stop buffer. L-[2,3-^3 H]Citrulline was eluted (2×) with 0.5 mL of stop buffer and radioactivity was determined by liquid scintillation counting. The L-[2,3-^3 H]arginine (Dupont, NEN) was purified prior to use on Dowex AG-1-X8 (CH3 CO2 -- form, Bio-Rad), eluted with distilled water, acidified, concentrated on a Speed-Vac (Savant) and stored at -20° C.
# Type I (rat brain) NOS = molecular target: T2, Type I (rat brain) NOS (Rattus norvegicus, UniProt P29476); assay: [3H]-arginine to [3H]-citrulline conversion, Type I (rat brain) NOS; assay type: biochemical; conditions: rat brain cerebellum NOS, 25° C.; for inhibition at 100 µM: read-out: Type I % inhib. @ 100 μM
# T2 construct: isolated from rat brain cerebellum cells partially purified on a phosphocellulose column; from tissue; host or cells: rat brain cerebellum, partially purified on phosphocellulose
# T2 sequence (P29476 whole entry): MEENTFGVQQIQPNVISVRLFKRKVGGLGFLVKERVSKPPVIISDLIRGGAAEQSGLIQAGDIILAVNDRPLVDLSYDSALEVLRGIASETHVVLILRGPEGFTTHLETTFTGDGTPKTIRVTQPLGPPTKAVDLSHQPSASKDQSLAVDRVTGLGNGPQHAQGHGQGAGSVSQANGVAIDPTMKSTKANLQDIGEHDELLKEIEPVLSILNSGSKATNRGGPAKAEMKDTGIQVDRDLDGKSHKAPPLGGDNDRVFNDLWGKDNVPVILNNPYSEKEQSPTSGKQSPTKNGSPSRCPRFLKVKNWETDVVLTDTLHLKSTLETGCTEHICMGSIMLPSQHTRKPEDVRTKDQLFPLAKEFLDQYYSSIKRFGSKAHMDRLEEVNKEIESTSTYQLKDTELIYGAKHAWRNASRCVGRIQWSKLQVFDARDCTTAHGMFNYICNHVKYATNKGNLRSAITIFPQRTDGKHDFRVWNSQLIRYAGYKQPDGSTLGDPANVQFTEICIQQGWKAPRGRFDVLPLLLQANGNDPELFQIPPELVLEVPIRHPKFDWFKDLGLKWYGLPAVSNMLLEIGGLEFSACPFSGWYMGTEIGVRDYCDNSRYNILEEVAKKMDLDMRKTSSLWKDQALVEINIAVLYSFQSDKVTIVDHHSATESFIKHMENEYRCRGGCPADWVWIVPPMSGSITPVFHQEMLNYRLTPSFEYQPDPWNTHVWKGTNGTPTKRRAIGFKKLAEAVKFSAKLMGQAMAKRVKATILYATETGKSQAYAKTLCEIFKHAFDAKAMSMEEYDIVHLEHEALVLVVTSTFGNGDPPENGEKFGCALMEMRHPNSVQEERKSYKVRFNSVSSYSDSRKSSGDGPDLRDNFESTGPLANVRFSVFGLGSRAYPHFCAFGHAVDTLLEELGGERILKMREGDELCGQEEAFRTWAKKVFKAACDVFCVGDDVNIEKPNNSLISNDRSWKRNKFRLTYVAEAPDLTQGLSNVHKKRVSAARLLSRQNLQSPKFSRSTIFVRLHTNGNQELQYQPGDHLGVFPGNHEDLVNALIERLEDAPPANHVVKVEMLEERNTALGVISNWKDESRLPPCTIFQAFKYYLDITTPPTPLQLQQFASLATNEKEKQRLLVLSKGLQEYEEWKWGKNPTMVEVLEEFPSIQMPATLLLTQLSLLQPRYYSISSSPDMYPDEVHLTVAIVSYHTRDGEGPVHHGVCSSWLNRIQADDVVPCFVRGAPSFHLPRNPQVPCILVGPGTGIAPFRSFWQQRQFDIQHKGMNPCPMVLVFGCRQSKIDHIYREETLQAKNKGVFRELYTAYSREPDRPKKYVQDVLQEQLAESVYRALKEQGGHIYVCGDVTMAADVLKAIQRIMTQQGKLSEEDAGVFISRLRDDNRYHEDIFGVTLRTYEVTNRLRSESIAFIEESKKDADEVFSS
# bovine coronary artery = conditions: cited from earlier work
# NO synthase enzyme = conditions: cited from earlier work
Compound,inhibition at 100 µM (Type II (macrophage) NOS),IC50 (Type II (macrophage) NOS),inhibition at 100 µM (Type I (rat brain) NOS),IC50 (Type I (rat brain) NOS),EDRF (NO) production (EDRF (NO) production),cGMP accumulation (bovine coronary artery; accompanying relaxation of bovine coronary artery),relaxation of bovine coronary artery (bovine coronary artery),substrate for the NO synthase enzyme (NO synthase enzyme)
CNC(=N)NCCCC(N)C(=O)O (centres unmarked) [N^G -methylarginine],,,,,inhibited,,,
"N[C@@H](CCCNc1c(Cl)cccc1[N+](=O)[O-])C(=O)O [Example 6, (2S)-2-amino-5-(2-chloro-6-nitrophenylamino)pentanoic acid]",11%,> 100 µM,55%,100 µM,,,,
"Cc1ccc([N+](=O)[O-])c(NC/C=C/[C@H](N)CO)c1 [Example 3, (2S)-2-amino-5-(5-methyl-2-nitrophenylamino)-pent-3E-en-1-ol]",,10 µM,99%,3 µM,,,,
"Cc1ccc([N+](=O)[O-])c(NCCC[C@H](N)C(=O)O)c1 [Example 2, (2S)-2-amino-5-(5-methyl-2-nitrophenylamino)pentanoic acid]",88%,10 µM,88%,4 µM,,,,
nitric oxide [nitric oxide (NO)],,,,,,cGMP accumulation,potent and transient relaxation,
"Cc1ccc([N+](=O)[O-])c(NCCCC(N)CO)c1 (centres unmarked) [Example 4, 2-amino-5-(5-methyl-2-nitrophenylamino)-1-pentanol]",99%,2.5 µM,94%,3 µM,,,,
N-hydroxyarginine,,,,,,,,substrate
"Cc1ccc([N+](=O)[O-])c(NCCCC[C@H](N)C(=O)O)c1 [Example 7, (2S)-2-amino-6-(2-nitro-5-methylphenylamino)hexanoic acid]",,> 100 µM,91%,40 µM,,,,
"COc1ccc([N+](=O)[O-])c(NCCC[C@H](N)C(=O)O)c1 [Example 5, (2S)-2-amino-5-(5-methoxy-2-nitrophenylamino)pentanoic acid]",46%,100 µM,68%,20 µM,,,,

# More lines, main results first:
inhibition at 100 µM (Type II (macrophage) NOS),IC50 (Type II (macrophage) NOS),inhibition at 100 µM (Type I (rat brain) NOS),IC50 (Type I (rat brain) NOS),Compound,EDRF (NO) production (EDRF (NO) production),cGMP accumulation (bovine coronary artery; accompanying relaxation of bovine coronary artery),relaxation of bovine coronary artery (bovine coronary artery),substrate for the NO synthase enzyme (NO synthase enzyme)
95%,9 µM,97%,1 µM,"Cc1ccc([N+](=O)[O-])c(SCCC[C@H](N)C(=O)O)c1 [Example 8, 2(S)-amino-5-(5-methyl-2-nitrophenylthioxy)pentanoic acid]",,,,
50%,100 µM,6%,> 100 µM,"N#Cc1ccccc1NCCC[C@H](N)C(=O)O [Example 11, (2S)-2-amino-5-(2-cyanophenylamino)pentanoic acid]",,,,
94%,7 µM,95%,,"N=C(NCCC[C@H](N)C(=O)O)N[N+](=O)[O-] [NNLA, NNitro-L-arginine, reference compound]",,,,
45%,100 µM,58%,70 µM,"Cc1ccc([N+](=O)[O-])c(NCCC[C@@H](N)C(=O)O)c1 [Example 10, (2R)-2-amino-5-(5-methyl-2-nitrophenylamino)pentanoic acid]",,,,
